From PubChem BioAssay AID624285 (Broad Institute, 2012) come the findings set out here.

This assay is described as follows: cell viability loss after compound exposure – 24 h, luminescence, cherry-picked samples, cytotoxicity control for PDI inhibitor project, dose response (AID 624285). Conditions: NIH3T3/HeLa viability, CellTiter-Glo ATP luminescence, 24 h; at 35 µM (top of the series).

Calls of active or inactive are those of the source.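 How the source made its calls: active means signal-decreasing dose-response curve whose fitted half-maximal concentration is at or below twice the highest valid tested dose; inconclusive means flat fit at 30 to 70% signal loss, or poor fit; inactive means the rest.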

On to `O=C(NC(Cc1ccc(O)cc1)C(=O)N=Nc1c(O)[nH]c2ccccc12)c1ccccc1` (centres undefined), for which the activity change, negative = cytotoxicity is -6.54% (inactive).
Under `COC(=O)CC1OCC=C2CN3CCC45C6=CC(=O)C(=O)C([N+](=O)[O-])=C6NC4C1C2CC35` (centres undefined) stands -13% (inactive).
Take `CCC(=O)N1CCc2cc(S(=O)(=O)CCC(=O)NCc3ccco3)ccc21`: the activity change, negative = cytotoxicity was -2.4% (inactive).
Next, `O=C(c1ccc(NS(=O)(=O)c2ccccc2)cc1)N1CCOCC1`: -8.07% (inactive); `O=C1NC[C@H](Cc2ccc(O)cc2)N(CC2CCCCC2)C1=O`: -25.4% (inactive); `Cc1ccc(N2CC(C(=O)Nc3nc4ccc(S(C)(=O)=O)cc4s3)CC2=O)cc1` (centres undefined): -4.02% (inactive).
Next, `CC(C)N1CCCC(C)(C(=O)Nc2nc3ccccc3n2C)C1` (centres undefined): -8.91% (inactive); `COc1ccc(Cl)cc1NC(=O)COC(=O)C1CC1`: -9.32% (inactive); `O=C(NCCCN1CCOCC1)C(Sc1ccccc1)c1ccccc1` (centres undefined): -12% (inactive).
Under `C=CCn1c(C(CCCC)CC(O)COCC(C)C)n[nH]c1=S` (centres undefined) stands -17.2% (inactive).
With `CN(C)C(=O)CSc1nnc([C@H](Cc2ccccc2)NC(=O)OC(C)(C)C)o1`, the activity change, negative = cytotoxicity is -9.45% (inactive).
Next, `O=C(OCc1ccc(-c2ccccc2)cc1)c1cccc(O)c1`: -8.38% (inactive).
As for `COc1cc(CCC(=O)OCC(=O)Nc2cc(S(=O)(=O)N3CCOCC3)ccc2Cl)cc(OC)c1OC`, the activity change, negative = cytotoxicity was -2.35% (inactive).
Under `Cc1cc(C)c2c(=O)n3c(nc2c1)C(Cc1ccc(O)cc1)NC(=O)c1cccnc1-3` (centres undefined) stands -10.3% (inactive); under `C[C@H]1CCCC(=O)CCCCCc2cc(O)cc(O)c2C(=O)O1`, -12.8% (inactive).
On to `C[C@]12CC[C@@H]3c4ccc(O[C@@H]5O[C@H](C(=O)O)[C@@H](O)[C@H](O)[C@H]5O)cc4CC[C@H]3[C@@H]1C[C@@H](O)[C@@H]2O`, for which the activity change, negative = cytotoxicity is -6.13% (inactive).
Take `C[C@@H]1O[C@@H](O[C@@H]2C(=O)c3c(O)cc(O)cc3O[C@H]2c2ccc(O)c(O)c2)[C@H](O)[C@H](O)[C@H]1O`: the activity change, negative = cytotoxicity is -7.93% (inactive).
Under `CC[C@]12c3[nH]c4cc(-c5ccco5)ccc4c3CCN1C(=O)[C@@H](CC(=O)NCCCOC)C[C@@H]2C(=O)N1CCN(C(=O)c2ccco2)CC1` stands -9.72% (inactive); under `C[C@H](CO)N1C[C@H](C)[C@@H](CN(C)Cc2ccc(Oc3ccccc3)cc2)Oc2c(NS(C)(=O)=O)cccc2C1=O`, 0.644% (inactive); under `Cc1cccc(C(=O)OCC(=O)N2CCCCCC2)c1O`, -10.1% (inactive).
Under `CCCNC(=O)Cn1c(-c2ccc(F)cc2)cc(C(=O)OCC)c1C` stands -18.9% (inactive); under `Cc1noc(C)c1S(=O)(=O)Nc1ccc2c(c1)CC(=O)N([C@@H](C)CO)C[C@H](C)[C@@H](CN(C)S(=O)(=O)c1ccc(F)cc1)O2`, 2.55% (inactive).
Next, `CCOC(=O)c1c(CN2CCOCC2)n(-c2ccccc2)c2cc(Br)c(OC)cc12`: -12.1% (inactive); `CCOC(=O)C1(Cc2ccc(O)cc2)NC(c2ccccc2F)C2C(=O)N(C)C(=O)C21` (centres undefined): -15.5% (inactive).
As for `O=C(Cc1ccccc1)Nc1cccc(C(=O)N/N=C/c2ccco2)c1`, the activity change, negative = cytotoxicity was -4.58% (inactive).
Next, `COc1ccc(C(=O)Nc2ccccc2C(=O)NCc2ccco2)cc1`: -14.7% (inactive); `C[C@H](CO)N1C[C@H](C)[C@@H](CN(C)S(=O)(=O)c2ccc(F)cc2)Oc2ccc(NC(=O)Cc3cn(C)c4ccccc34)cc2C1=O`: -0.991% (inactive).
Consider `CCOC(=O)C1(C)CCCN(C(=O)c2cccc(Cl)c2)C1` (centres undefined), for which the activity change, negative = cytotoxicity is -5.27% (inactive).
As for `CCN(CC)C(=O)CSc1nnc([C@H](Cc2c[nH]c3ccccc23)NC(=O)OC(C)(C)C)o1`, the activity change, negative = cytotoxicity was -8.74% (inactive).
As for `N#Cc1ccccc1CSc1nnc(Cc2ccccc2)o1`, the activity change, negative = cytotoxicity is -7.32% (inactive).
Next, `Cc1noc(C)c1S(=O)(=O)Nc1ccc2c(c1)CC(=O)N([C@@H](C)CO)C[C@H](C)[C@H](CN(C)S(=O)(=O)c1ccc(F)cc1)O2`: 7.36% (inactive); `O=S(=O)(c1ccccc1)N1N=C(c2ccc(O)cc2)CC1c1ccco1` (centres undefined): -18% (inactive).
Next, `CN(C)CCN(C(=O)c1ccc(S(=O)(=O)N2CCc3ccccc32)cc1)c1nc2ccc(F)cc2s1`: -13.9% (inactive); `C[C@H](CO)N1C[C@H](C)[C@H](CN(C)S(=O)(=O)c2ccc(F)cc2)Oc2ccc(NC(=O)Cc3cn(C)c4ccccc34)cc2C1=O`: -6.42% (inactive); `CC[C@]12c3[nH]c4cc(-c5ccco5)ccc4c3CCN1C(=O)[C@@H](CC(=O)NCc1ccc(OC)c(OC)c1)C[C@@H]2C(=O)N1CCN(C(=O)C2CC2)CC1`: -17.7% (inactive).
Under `CN(C)C(=O)CSc1nnc([C@H](Cc2c[nH]c3ccccc23)NC(=O)OC(C)(C)C)o1` stands -2.37% (inactive); under `CN(C)S(=O)(=O)c1ccc(Cl)c(NC(=O)CSc2nnnn2-c2ccc(O)cc2)c1`, -11.7% (inactive); under `CC1(C(=O)NS(=O)(=O)c2ccccc2Cl)CCN1C(=O)c1ccccc1CCc1ccccc1` (centres undefined), -8.92% (inactive).
Take `COc1cccc(/C=N/NC(=O)CNC(=O)C(c2ccccc2)c2ccccc2)c1O`: the activity change, negative = cytotoxicity is -15.7% (inactive).
For the molecule `CC1CCc2sc(C(=O)N/N=C/C3CCCCC3)cc2C1` (centres undefined), the activity change, negative = cytotoxicity is -8.35% (inactive).
For `O=C(NCc1ccncc1)Nc1cc(Cl)ccc1Cl`, the activity change, negative = cytotoxicity was -6.87% (inactive).
As for `Cc1c(-n2cc(C(=O)c3ccccc3O)cc(C#N)c2=O)c(=O)n(-c2ccccc2)n1C`, the activity change, negative = cytotoxicity was -5.22% (inactive).
Next, `C[C@@H]1O[C@@H](OC[C@H]2O[C@@H](Oc3c(-c4ccc(O)c(O)c4)oc4cc(O)cc(O)c4c3=O)[C@H](O)[C@@H](O)[C@@H]2O)[C@H](O)[C@H](O)[C@H]1O`: -2.56% (inactive); `Cc1ccc2c(=O)n3c(nc2c1)C(Cc1ccc(O)cc1)NC(=O)c1cccnc1-3` (centres undefined): -12.6% (inactive); `O=S(=O)(c1cc(F)ccc1F)N1CCN(c2ncccn2)CC1`: -15.2% (inactive).
On to `C[C@H](CO)N1C[C@H](C)[C@@H](CN(C)S(=O)(=O)c2ccc(F)cc2)Oc2ccc(NC(=O)Cc3ccccc3)cc2C1=O`, for which the activity change, negative = cytotoxicity was -14.6% (inactive).
For `COC(=O)C(Cc1ccc(O)cc1)N1Cc2ccccc2C1=O` (centres undefined), the activity change, negative = cytotoxicity was -9.13% (inactive).
Next, `COc1ccccc1NC(=O)c1ccc(NC(=O)COC(=O)c2cccnc2Cl)cc1`: -3.13% (inactive); `CCCCn1c(SCC(=O)NC2CCS(=O)(=O)C2)nc2ccccc2c1=O` (centres undefined): -8.17% (inactive); `O=C(O)c1ccccc1Cc1ccc(F)c2ccccc12`: -10.5% (inactive).
Under `COc1cc(C2C(C(C)=O)=C(O)C(=O)N2CCc2c[nH]c3ccccc23)ccc1O` (centres undefined) stands -5.75% (inactive); under `CC(C)(C)OC(=O)N[C@@H](Cc1c[nH]c2ccccc12)c1nnc(SCC(N)=O)o1`, -7.43% (inactive).
Next, `CC(=O)c1ccc(NC(=O)c2cc(Cl)nc3ccccc23)cc1`: -8.36% (inactive).
For `Cc1c(O)ccc2c(CN3CCN(Cc4ccccc4)CC3)cc(=O)oc12`, the activity change, negative = cytotoxicity was -14.2% (inactive).
With `CCCCNC(=O)CCn1c(=O)c2ccccc2n(CC(=O)Nc2ccccc2OCC)c1=O`, the activity change, negative = cytotoxicity is -9.28% (inactive).
Next, `CCOc1ccc(C(=O)NCC(=O)OCC(=O)N(C)CC(=O)Nc2ccccc2CC)cc1OCC`: -4.27% (inactive); `Cn1c(=O)n(CCCOc2ccc(Br)cc2)c2ccccc21`: -15.3% (inactive); `CCOc1ccc(NC(=O)CCc2nnc3ccc(N4CCN(C)CC4)nn23)cc1`: -6.93% (inactive).
Next, `Cn1nnnc1SCC(=O)Nc1cc(C(F)(F)F)ccc1N1CCOCC1`: -9.83% (inactive); `COc1ccc(OC)c(CN2CCN(Cc3cc(=O)oc4cc(O)ccc34)CC2)c1`: -20.6% (inactive); `C[C@H](CO)N1C[C@H](C)[C@@H](CN(C)S(=O)(=O)c2ccccc2)Oc2ccc(NC(=O)Cc3cn(C)c4ccccc34)cc2C1=O`: -1.88% (inactive).
Under `O=C(/C=C/c1ccc(NC(=O)c2ccccc2-c2ccccc2C(=O)O)cc1)c1ccccc1` stands -8.34% (inactive); under `O=C(O)CCc1ccc(-c2cccs2)n1NC(=O)c1ccco1`, 0.695% (inactive); under `O=C(NCc1ccccn1)Nc1cccc(Cl)c1`, -8.23% (inactive).
On to `CC(=O)N(C)C1(c2nnnn2CCOC(=O)Nc2ccc(Cl)cc2)CCCCC1`, for which the activity change, negative = cytotoxicity was -9.52% (inactive).
Next, `O=c1c(OC2OC(CO)C(O)C(O)C2O)c(-c2ccc(O)c(O)c2)oc2cc(O)cc(O)c12` (centres undefined): -0.384% (inactive); `CCOC(=O)c1cc(S(=O)(=O)N2CCN(C(=O)OCC)CC2)cn1C`: -3.84% (inactive); `CC1(C(=O)Nc2cccc3c2CCCC3)CCN1C(=O)c1cccc(F)c1` (centres undefined): -14.8% (inactive).
Under `CN(CCC(=O)Nc1ccc(Br)cc1)Cc1ccccc1` stands -5.93% (inactive).
